Patent US20230242526A1 (Zentaur Therapeutics International Limited, priority 2020, published 2023)

Columns and labels:
[1] = Pharmacokinetic profiling in mouse (i.v. and i.g.); format: in vivo, male ICR mice; conditions: male, ICR, plasma; for Vd: read-out: Vdss; for bioavailability: calculated by using the AUC0-t, read-out: F (bioavailability)
Method: (1). Kolliphor® HS 15 (formerly regarded as Solutol® HS 15) a non-ionic surfactant, was used as a solubilizer in preparing the parenteral formulations; (2). DMA (N,N-dimethylacetamide); (3). saline; and (4). Tween 80; (5) acetyl nitrile. […] To a glass flask was added 6.0 μmol of the test compound, and 0.265 mL of DMA. The glass flask was vortexed to allow the complete dissolution of the solid. Then 0.265 mL of 30% Solution HS 15 was added to the test compound solution in DMA and was vortexed to allow homogeneous mixing. Lastly, 2.12 mL of saline was added to the mixture in the glass flask. The flask was vortexed to allow homogeneous mixing. […] A clear liquid test sample iv formulation was obtained. An aliquot of 100 μL of the test sample iv formulation was placed into a 1.5 mL EP tube and was kept at 2-8° C. for future sample concentration quantification by HPLC. […] To a glass flask was added 27 μmol of the test compound and 4.047 mL of 0.5% MC with 01. % Tween 80. The flask and the mixture was vortexed followed by sonication for about 15 minutes to allow even distribution of the solids. A white suspension of the text sample was obtained. […] Ltd. Before receiving the test compound formulations, the animals were on fasting overnight. On the day of dosing, the animals were fed at 4h after the dosing. During the tests, the animals were free to drink water. Each test compound was tested in duplicate with different routes of administration: in one set of tests, mice received test compounds by iv injection route, and in the other set of tests, mice received the test compounds by IG administration. The schedules of the test for each mouse are illustrated in Table 5 below. [table] 100 μL blood sample was taken from the veins in animal eyelid. The whole blood sample was placed in anticoagulation tubes treated with EDTA-K2. The whole blood sample was centrifuged at 1500 g for 10 min. The plasma at the upper level was collected into test tubes. An aliquot of 10 μL of sample was added with 100 μL ACN which contains of Verapamil, 5 ng/mL, Glibenclamide, 50 ng/mL, Tolbutamide, 200 ng/mL and Diclofenac, 200 ng mL-1 for protein precipitation. The mixture was vortexed for 1 min, then centrifuged at 13000 rpm for 8 min. Then 70 μL of supernatant was added with 70 μL water, then vortexed for 10 min. An aliquot of 5 μL of the mixture was injected into the LC-MS/MS system. LC-MS/MS (API 4000: LC-MS-MS-001), column: […] Sample injection volume is 5 μL. Flow rate is 0.8 mL/min. The detection wavelength is set at 254 nm.

in vitro = conditions: human, microsomes, pH 7.4, t1/2 human
Method: Human liver microsomes (cat. No. 452161), mouse liver microsomes (cat. No. 452701), were purchased from Corning.
Samples were analyzed using LC-MS/MS using a SCIEX API 4000 mass spectrometer coupled with Agilent HPLC analytical system. After separation on a ZORBAX XDB-C18 column (5 μm, 50×2.1 mm, column No. 50-282) using an acetonitrile-water gradient system, peaks were analyzed by mass spectroscopy (MS) using ESI ionization in Q1 and Q3 scan mode.
The LC and MS are all controlled by Analyst software.
The liver microsomes were incubated with 1.0 μM of the testing compound at 37° C. The incubation mixture contained 100 mM PBS buffer (pH=7.4), 3 mM MgCl2 and 1 mM NADPH. The concentration of liver microsome in the incubation mixture was 0.5 mg/mL for testing compound, and 0.2 mg/mL for MDZ and the total volume is 0.2 mL. […] Aliquots were withdrawn at time points of 0 min, 5 min and 20 min for MDZ. The reactions were terminated by transferring the aliquots to a methanol solution containing the internal standard […] for analytical quantification. The quenched samples were analyzed by LC-MS/MS. The incubations were carried out in duplicates. The metabolic stability of the testing compounds by the liver microsomes of human and mice is expressed as elimination half-life (t1/2). The results are shown as the means of duplicate determinations±SD.

[2] = test system: human breast squamous HCC1806 cell line; test: CyQUANT Direct cell proliferation assay, HCC1806; format: cell-based; conditions: HCC1806, 168 h, 7 days
Excerpt: The human ovarian carcinoma OVCAR3 cell line (ATCC HTB-161™) or human breast squamous HCC1806 cell line (ATCC CRL 2335) were obtained from American Type Culture Collection (ATCC), and maintained in culture media according to the supplier's specification.
The CyQUANT® Direct Cell Proliferation Assay Kit (Invitrogen™, catalog No. G35012) was utilized to test the inhibitory activities of the CDK2 inhibitors described in this disclosure against OVCAR3 or HCC1806 tumor cells.
CyQUANT® Direct Cell Proliferation Assay: The spent medium from the purchased tumor cell culture plate was removed and the tumor cells were washed with PBS buffer twice. Trypsin (VWR catalog No. 0458-25G) was added to digest the tumor cells until tumor cells appeared round shaped and to dissociate adherent cells from the plate wall in which they are being cultured. Then RPMI-1640 media (HCC1806, Gibco™ catalog No, A10491-01) with 10% fetal bovine serum (FBS) (Hyclone™ catalog No. SV30160.03), or RPMI-1640 media (OVCAR-3, Gibco™ catalog No. 10370-021) with 20% FBS and 0.01 mg/mL insulin was added to stop the trypsin digestion reaction. The tumor cells were lightly agitated with a liquid transfer pipette to cause tumor cells suspended in the culture media. The cells were counted. The complete medium was used to prepare tumor cell suspension.
OVCAR3 or HCC1806 cells were seeded at 40 μL/well in 384-well plates in growth media containing FBS and cultured 24 hours in the incubator at 37° C., 5% CO2. […] Compound solutions were added by Agilent Bravo liquid handler. […] The control wells contained the growth medium having 0.1% DMSO. Cells were incubated at 37° C., 5% CO2 for 7 days.
CYQUANT Direct Cell Proliferation Assay (Molecular Probes, Eugene, Oreg.) was then performed following manufacturer's instructions to prepare the detection reagents. 50 μL of detection reagent was aliquot and added to each well and the cells were incubated at 37° C. for 1 hr.
The cell culture plates were placed on TECAN M1000 microplate reader to detect the fluorescence intensity at 508 nm excitation and 527 nm emission wavelengths. Graphpad Prism 6.0 software was used for data processing, preparing cell growth curve, calculating percentage inhibition on cell growth. IC50 values were calculated by concentration-response curve fitting utilizing a four-parameter analytical method using GraphPad Prism software.

Row | Structure (SMILES) | AUC(0-t) ([1]; iv, i.v. 5 mg/kg) [ng·h/mL] | C0 ([1]; iv, i.v. 5 mg/kg) [ng/mL] | clearance ([1]; iv, i.v. 5 mg/kg) [mL/min/kg] | half-life ([1]; iv, i.v. 5 mg/kg) [h] | Vd ([1]; iv, i.v. 5 mg/kg) [L/kg] | AUC(0-t) ([1]; po, i.g. 30 mg/kg) [ng·h/mL] | Cmax ([1]; po, i.g. 30 mg/kg) [ng/mL] | Tmax ([1]; po, i.g. 30 mg/kg) [h] | half-life ([1]; po, i.g. 30 mg/kg) [h] | bioavailability ([1]; po, i.g. 30 mg/kg) [%] | half-life at 1 μM (in vitro) [h] | IC50 [2] [nM]
1 | Cc1cc2cnc(NC3CCN(S(C)(=O)=O)CC3)nc2n([C@@H]2CCC[C@@]2(C)O)c1=O [Comp. 4, (−)-8-(2-hydroxy-2-methylcyclopentyl)-6-methyl-2-((1-(methylsulfonyl)piperidin-4-yl)amino)pyrido[2,3-d]pyrimidin-7(8H)-one, reference compound] | 967 | 8300 | 86.1 | 0.195 | 0.611 | 245 | 211 | 0.25 | 2.24 | 4.2 | 7.7 | 41.5
2 | [2H]C(F)(F)c1cc2cnc(NC3CCN(S(C)(=O)=O)CC3)nc2n([C@@H]2CCC[C@@]2(C)O)c1=O [Comp. 28, (−)-6-(difluoromethyl-d)-8-((1R,2R)-2-hydroxy-2-methylcyclopentyl)-2-((1-(methylsulfonyl)piperidin-4-yl)amino)pyrido[2,3-d]pyrimidin-7(8H)-one] | – | – | – | – | – | – | – | – | – | – | 14.4 | 75
3 | C[C@@]1(O)CCC[C@H]1n1c(=O)c(C(F)F)cc2cnc(NC3CCN(S(C)(=O)=O)CC3)nc21 [Comp. 5, (−)-6-(difluoromethyl)-8-((1R,2R)-2-hydroxy-2-methylcyclopentyl)-2-((1-(methylsulfonyl)piperidin-4-yl)amino)pyrido[2,3-d]pyrimidin-7(8H)-one, reference compound] | 1360 | 5020 | 61.2 | 0.367 | 1 | 1190 | 1040 | 0.25 | 2.76 | 14.6 | 33.3 | 52.1
4 | [2H]C([2H])([2H])c1cc2cnc(NC3CCN(S(C)(=O)=O)CC3)nc2n([C@@H]2CCC[C@@]2(C)O)c1=O [Comp. 37, (−)-8-((1R,2R)-2-hydroxy-2-methylcyclopentyl)-6-(methyl-d3)-2-((1-(methylsulfonyl)piperidin-4-yl)amino)pyrido[2,3-d]pyrimidin-7(8H)-one] | 1290 | 7420 | 64.7 | 0.33 | 0.703 | 605 | 522 | 0.25 | 1.72 | 7.8 | 28.9 | 35
